# Measurements: publication PMC4114247 (Cancer research, 2009)
# Entries after “also recorded” stand apart in the source; their conditions may differ.
# Experiments:
# PC3 PIP (PSMA +) tumors = experiment: SPECT/CT imaging, PC3 PIP; settings: 2 hr after injection
# [1] = test system: PC3 cells (PSMA negative); experiment: Direct binding to PC3 cells; settings: 3 nM radioligand, 1 hour; PC3 cells lack PSMA
# [2] = test system: NCr-nu/nu mice bearing PC3 xenografts; experiment: Mouse tissue distribution, PC3 xenografts; type: in vivo; settings: PSMA deficient PC3 xenografts
# [3] = test system: NCr nude mice bearing LNCaP xenografts; experiment: Mouse tissue distribution, LNCaP xenografts; type: in vivo
# [4] = molecular target: LNCaP cells (PSMA positive) (Homo sapiens, UniProt Q04609); experiment: Direct binding to LNCaP cells
# Chain of LNCaP cells (PSMA positive) (Q04609 whole entry): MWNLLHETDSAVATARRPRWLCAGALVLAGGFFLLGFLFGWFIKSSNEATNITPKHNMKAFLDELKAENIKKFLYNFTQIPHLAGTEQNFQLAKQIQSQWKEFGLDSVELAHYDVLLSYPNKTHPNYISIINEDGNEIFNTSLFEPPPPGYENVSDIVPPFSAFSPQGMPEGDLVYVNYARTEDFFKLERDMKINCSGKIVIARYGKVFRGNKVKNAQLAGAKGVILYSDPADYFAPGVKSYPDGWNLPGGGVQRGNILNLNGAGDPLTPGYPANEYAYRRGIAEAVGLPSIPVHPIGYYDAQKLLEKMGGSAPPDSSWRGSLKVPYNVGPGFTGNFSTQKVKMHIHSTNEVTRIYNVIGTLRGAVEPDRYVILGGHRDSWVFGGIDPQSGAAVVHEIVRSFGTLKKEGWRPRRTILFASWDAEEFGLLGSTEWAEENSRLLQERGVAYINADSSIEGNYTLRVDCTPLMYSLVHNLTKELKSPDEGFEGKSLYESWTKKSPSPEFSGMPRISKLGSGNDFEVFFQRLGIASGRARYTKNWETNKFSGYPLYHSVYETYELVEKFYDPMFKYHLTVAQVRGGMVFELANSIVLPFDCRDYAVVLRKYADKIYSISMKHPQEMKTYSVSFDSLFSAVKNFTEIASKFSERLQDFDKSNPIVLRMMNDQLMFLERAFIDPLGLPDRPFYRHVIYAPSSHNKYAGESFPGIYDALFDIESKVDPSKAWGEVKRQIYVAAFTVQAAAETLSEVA
# [5] = Stability in liver microsomes; type: in vitro ADME; settings: data not shown
# [6] = test system: mice bearing LNCaP xenografts; experiment: SPECT/CT imaging, LNCaP xenografts; type: in vivo, mouse; settings: 4 hr after injection
# [7] = Stability in blood plasma; type: in vitro ADME; settings: data not shown
# LNCaP cells = experiment: Internalization into LNCaP cells; type: cell-based, human; settings: 100 nM, 0–2 hours
# [8] = co-injected with 50 mg/kg PMPA, 2 hours
# [9] = male, athymic NCr-nu/nu, mouse, in vivo
# [10] = male, athymic NCr-nu/nu, mouse, in vivo, 0.25 h
# [11] = male, athymic NCr-nu/nu, mouse, in vivo, 1 h
# [12] = male, athymic NCr-nu/nu, mouse, in vivo, 2 h
# [13] = male, athymic NCr-nu/nu, mouse, in vivo, 4 h
# [14] = male, athymic NCr-nu/nu, mouse, in vivo, 8 h
# [15] = male, athymic NCr-nu/nu, mouse, in vivo, 24 h
smiles,measurement,setting,value
"O=C(O)CC[C@H](NC(=O)N[C@@H](CCCCNC(=O)Nc1ccc(I)cc1)C(=O)O)C(=O)O [[^123I]MIP-1095, (S)-2-(3-((S)-1-carboxy-5-(3-(4-iodophenyl)ureido)pentyl)ureido)pentanedioic acid]",SPECT/CT detection of PC3 PIP (PSMA +) tumors,PC3 PIP (PSMA +) tumors,detected
same,Binding to PC3 cells,[1],no binding; also recorded: not to the PSMA deficient PC3 cells
same,Localization to PC3 tumors,[2],not to the PSMA deficient PC3 tumors
same,Binding to LNCaP tumor xenografts with co-injected PMPA,[3]; [8],blocked
same,Binding to kidneys with co-injected PMPA,[3]; [8],blocked
same,Thyroid content (deiodination),[3]; [9],< 1 % of the total injected dose
same,tumor:blood ratio,[3]; [9],> 100
same,tumor:skeletal muscle ratio,[3]; [9],> 100
same,Ratio Tumor:Blood,[3]; [10],2.10
same,Ratio Tumor:Skeletal Muscle,[3]; [10],8.79
same,Tissue distribution: Adipose,[3]; [10],4.67 ± 4 %ID/g
same,Tissue distribution: Blood,[3]; [10],3.75 ± 0.7 %ID/g
same,Tissue distribution: Bone,[3]; [10],0.9 ± 0.27 %ID/g
same,Tissue distribution: Brain,[3]; [10],0.17 ± 0.05 %ID/g
same,Tissue distribution: Heart,[3]; [10],2.76 ± 0.54 %ID/g
same,Tissue distribution: Kidneys,[3]; [10],52.2 ± 12.2 %ID/g
same,Tissue distribution: Lg Intestine,[3]; [10],1.59 ± 1.45 %ID/g
same,Tissue distribution: Liver,[3]; [10],8.66 ± 1.54 %ID/g
same,Tissue distribution: Lungs,[3]; [10],4.53 ± 0.66 %ID/g
same,Tissue distribution: Sk.Muscle,[3]; [10],0.9 ± 0.2 %ID/g
same,Tissue distribution: Sm Intestine,[3]; [10],1.78 ± 1.05 %ID/g
same,Tissue distribution: Spleen,[3]; [10],9.65 ± 6.44 %ID/g
same,Tissue distribution: Stomach,[3]; [10],1.77 ± 0.52 %ID/g
same,Tissue distribution: Testes,[3]; [10],1.11 ± 0.51 %ID/g
same,Tissue distribution: Tumor (LNCaP xenograft),[3]; [10],7.9 ± 2.43 %ID/g
same,Ratio Tumor:Blood,[3]; [11],10.6
same,Ratio Tumor:Skeletal Muscle,[3]; [11],49.3
same,Tissue distribution: Adipose,[3]; [11],2.34 ± 0.48 %ID/g
same,Tissue distribution: Blood,[3]; [11],1.95 ± 0.23 %ID/g
same,Tissue distribution: Bone,[3]; [11],0.55 ± 0.04 %ID/g
same,Tissue distribution: Brain,[3]; [11],0.06 ± 0.03 %ID/g
same,Tissue distribution: Heart,[3]; [11],1.31 ± 0.22 %ID/g
same,Tissue distribution: Kidneys,[3]; [11],65.3 ± 7.5 %ID/g
same,Tissue distribution: Lg Intestine,[3]; [11],0.87 ± 0.38 %ID/g
same,Tissue distribution: Liver,[3]; [11],11.3 ± 1.3 %ID/g
same,Tissue distribution: Lungs,[3]; [11],3.22 ± 0.68 %ID/g
same,Tissue distribution: Sk.Muscle,[3]; [11],0.42 ± 0.03 %ID/g
same,Tissue distribution: Sm Intestine,[3]; [11],4.4 ± 0.55 %ID/g
same,Tissue distribution: Spleen,[3]; [11],4.57 ± 0.77 %ID/g
same,Tissue distribution: Stomach,[3]; [11],3.02 ± 0.47 %ID/g
same,Tissue distribution: Testes,[3]; [11],0.86 ± 0.18 %ID/g
same,Tissue distribution: Tumor (LNCaP xenograft),[3]; [11],20.7 ± 5.8 %ID/g
same,Ratio Tumor:Blood,[3]; [12],24.3
same,Ratio Tumor:Skeletal Muscle,[3]; [12],80.8
same,Tissue distribution: Adipose,[3]; [12],1.68 ± 1.15 %ID/g
same,Tissue distribution: Blood,[3]; [12],1.12 ± 0.48 %ID/g
same,Tissue distribution: Bone,[3]; [12],0.36 ± 0.11 %ID/g
same,Tissue distribution: Brain,[3]; [12],0.06 ± 0.02 %ID/g
same,Tissue distribution: Heart,[3]; [12],0.78 ± 0.28 %ID/g
same,Tissue distribution: Kidneys,[3]; [12],88.7 ± 23.8 %ID/g
same,Tissue distribution: Lg Intestine,[3]; [12],4 ± 2.82 %ID/g
same,Tissue distribution: Liver,[3]; [12],9.94 ± 2.53 %ID/g
same,Tissue distribution: Lungs,[3]; [12],2.3 ± 1.02 %ID/g
same,Tissue distribution: Sk.Muscle,[3]; [12],0.34 ± 0.17 %ID/g
same,Tissue distribution: Sm Intestine,[3]; [12],4.67 ± 0.86 %ID/g
same,Tissue distribution: Spleen,[3]; [12],3.73 ± 1.46 %ID/g
same,Tissue distribution: Stomach,[3]; [12],2.33 ± 1.79 %ID/g
same,Tissue distribution: Testes,[3]; [12],1.27 ± 0.31 %ID/g
same,Tissue distribution: Tumor (LNCaP xenograft),[3]; [12],27.3 ± 3.4 %ID/g
same,Ratio Tumor:Blood,[3]; [13],40.6
same,Ratio Tumor:Skeletal Muscle,[3]; [13],133
same,Tissue distribution: Adipose,[3]; [13],0.86 ± 0.43 %ID/g
same,Tissue distribution: Blood,[3]; [13],0.84 ± 0.23 %ID/g
same,Tissue distribution: Bone,[3]; [13],0.25 ± 0.04 %ID/g
same,Tissue distribution: Brain,[3]; [13],0.44 ± 0.91 %ID/g
same,Tissue distribution: Heart,[3]; [13],0.53 ± 0.09 %ID/g
same,Tissue distribution: Kidneys,[3]; [13],77.5 ± 16.6 %ID/g
same,Tissue distribution: Lg Intestine,[3]; [13],7.55 ± 7.69 %ID/g
same,Tissue distribution: Liver,[3]; [13],7.82 ± 1.01 %ID/g
same,Tissue distribution: Lungs,[3]; [13],1.6 ± 0.53 %ID/g
same,Tissue distribution: Sm Intestine,[3]; [13],6.64 ± 3.19 %ID/g
same,Tissue distribution: Spleen,[3]; [13],2.06 ± 0.63 %ID/g
same,Tissue distribution: Stomach,[3]; [13],4.09 ± 1.36 %ID/g
same,Tissue distribution: Testes,[3]; [13],0.84 ± 0.18 %ID/g
same,Ratio Tumor:Blood,[3]; [14],57.5
same,Ratio Tumor:Skeletal Muscle,[3]; [14],121
same,Tissue distribution: Adipose,[3]; [14],2.63 ± 4.66 %ID/g
same,Tissue distribution: Blood,[3]; [14],0.49 ± 0.21 %ID/g
same,Tissue distribution: Bone,[3]; [14],0.28 ± 0.13 %ID/g
same,Tissue distribution: Brain,[3]; [14],0.07 ± 0.02 %ID/g
same,Tissue distribution: Heart,[3]; [14],0.38 ± 0.12 %ID/g
same,Tissue distribution: Kidneys,[3]; [14],54.8 ± 19.1 %ID/g
same,Tissue distribution: Lg Intestine,[3]; [14],12.28 ± 5.35 %ID/g
same,Tissue distribution: Liver,[3]; [14],3.79 ± 0.87 %ID/g
same,Tissue distribution: Lungs,[3]; [14],1.53 ± 1 %ID/g
same,Tissue distribution: Sk.Muscle,[3]; [14],0.23 ± 0.13 %ID/g
same,Tissue distribution: Sm Intestine,[3]; [14],3.66 ± 0.9 %ID/g
same,Tissue distribution: Spleen,[3]; [14],1.34 ± 0.63 %ID/g
same,Tissue distribution: Stomach,[3]; [14],4.43 ± 2.28 %ID/g
same,Tissue distribution: Testes,[3]; [14],0.6 ± 0.12 %ID/g
same,Tissue distribution: Tumor (LNCaP xenograft),[3]; [14],28.1 ± 12.8 %ID/g
same,Ratio Tumor:Blood,[3]; [15],174
same,Ratio Tumor:Skeletal Muscle,[3]; [15],304
same,Tissue distribution: Adipose,[3]; [15],0.52 ± 0.25 %ID/g
same,Tissue distribution: Blood,[3]; [15],0.17 ± 0.1 %ID/g
same,Tissue distribution: Bone,[3]; [15],0.27 ± 0.19 %ID/g
same,Tissue distribution: Brain,[3]; [15],0.03 ± 0.01 %ID/g
same,Tissue distribution: Heart,[3]; [15],0.15 ± 0.08 %ID/g
same,Tissue distribution: Kidneys,[3]; [15],27 ± 26.2 %ID/g
same,Tissue distribution: Lg Intestine,[3]; [15],4.49 ± 3.09 %ID/g
same,Tissue distribution: Liver,[3]; [15],1.31 ± 0.63 %ID/g
same,Tissue distribution: Lungs,[3]; [15],0.55 ± 0.42 %ID/g
same,Tissue distribution: Sk.Muscle,[3]; [15],0.1 ± 0.04 %ID/g
same,Tissue distribution: Sm Intestine,[3]; [15],0.76 ± 0.48 %ID/g
same,Tissue distribution: Spleen,[3]; [15],0.45 ± 0.29 %ID/g
same,Tissue distribution: Stomach,[3]; [15],1.15 ± 1.2 %ID/g
same,Tissue distribution: Testes,[3]; [15],0.27 ± 0.23 %ID/g
same,Tissue distribution: Tumor (LNCaP xenograft),[3]; [15],29.1 ± 15.1 %ID/g
same,Blood-brain barrier crossing,"[3]; mouse, in vivo",do not cross the blood-brain barrier
same,Route of clearance,"[3]; mouse, in vivo",by both urinary and hepatobiliary routes
same,Binding to LNCaP cells in the presence of non-radiolabeled compound or PMPA,[4]; 3 nM radioligand with 10 µM non-radiolabeled compound or 10 µM PMPA,abolished; also recorded: inhibited
same,Binding to LNCaP cells,"[4]; 3 nM radioligand, 1 hour, room temperature",bound
same,Stability in liver microsomes,[5],stable
same,SPECT/CT uptake in kidney and LNCaP tumor,[6],high uptake
same,Stability in blood plasma,[7],stable
same,Internalization into LNCaP cells,LNCaP cells; 4 °C,but not at 4 °C
same,Internalization into LNCaP cells,LNCaP cells; 37 °C,internalized; also recorded: time dependent increase in radioactivity associated with the cellular pellet
